Results published in patent US20240285599A1, “Mature-Hepatocyte Transdifferentiation Suppressing Composition” (OSAKA UNIVERSITY, priority 2021, published 2024).

How the values were obtained:
[1] = tested on: human cholangiocarcinoma cell line HuCCA1; test: Cell proliferation assay (IncuCyte) of cholangiocarcinoma cell line HuCCA1; type: cell-based
Procedure: (§1) A human hepatoma cell line HepG2, and human cholangiocarcinoma cell lines HuCCT1, HuCCA1, and KKU213 were obtained from the JCRB Cell Bank. The HepG2 and KKU213 cells were cultured in a Dulbecco's modified Eagle's medium (DMEM; Nacalai Tesque, Inc., Japan) having added thereto 10% heat-inactivated fetal calf serum (FCS; Gibco, USA). The HuCCT1 cells were cultured in an RPMI medium (Nacalai Tesque, Inc., Japan) containing 10% FCS. The HuCCA1 cells were cultured in D-MEM/Ham's F-12 (containing L-glutamine and phenol red) (Wako Pure Chemical Industries, Ltd., Japan) having added thereto 10% FCS. All the cells were cultured with a CO2 incubator at 37° C. The cells were detached with trypsin (Nacalai Tesque, Inc., Japan), and were passaged. Those cells were routinely examined for mycoplasma.
(§2) The transfection of siRNA or a plasmid into cells was performed with Lipofectamine RNAiMAX Transfection Reagent (Thermo Fisher Scientific, Inc., USA) or Lipofectamine 2000 (Thermo Fisher Scientific, Inc., USA), respectively, and with Opti-MEM (Thermo Fisher Scientific, Inc., USA). The transfection of the siRNA was performed as follows: the cells were dispersed at a concentration of 100,000 cells/mL; 10 μM of the siRNA was mixed into 100 μL of the Opti-MEM at a ratio of 1 μL, and the mixture was left at rest for 5 minutes; and then 3 μL of the RNAiMAX was mixed into the mixture, and the whole was left at rest for 15 minutes, followed by administration to the supernatant of the previously dispersed cells. Further, a medium change was performed 24 hours thereafter.
(§3) Hepatocytes or cholangiocarcinoma cells were inoculated on a 96-well plate, and their cell proliferation was analyzed with IncuCyte (trademark) Si (Sartorius AG, Germany) in accordance with the manufacturer's instructions.
(§4) Two kinds of NIK siRNA (the NIK KD #1 and the NIK KD #2) were introduced into each of human cholangiocarcinoma cell lines HuCCT1, HuCCA1, and KKU213 to knock down MAP3K14 (NIK). […]

[2] = tested on: TRAF3/PTEN knockdown HepG2 cell; test: Cell proliferation assay (IncuCyte) of TRAF3/PTEN knockdown HepG2; type: cell-based, human
Procedure: as §3
Specifically, 24 hours after the start of the culture of each of the PTKD #1HepG2 and the PTKD #1PHH obtained in Test Example 5, NIKSMI described above was added at a concentration of 9 μM. 48 Hours after that, the cells were recovered, and the mRNA of KRT19 was quantified, followed by immunoblotting.
Specifically, the NIK KD #1 or the NIK KD #2 was transfected into the PTKD #1HepG2 and the PTKD #1PHH obtained in Test Example 5 to provide a PTKDNIK #1 and a PTKDNIK #2, respectively. 72 Hours after the start of the culture of each of the cells, the cell was recovered, and the mRNA of KRT19 was quantified, followed by immunoblotting.
The above-mentioned cell proliferation analysis and the production of the cell growth curves were performed with IncuCyte (trademark).

[3] = tested on: human cholangiocarcinoma cell line HuCCT1; test: Cell proliferation assay (IncuCyte) of cholangiocarcinoma cell line HuCCT1; type: cell-based
Procedure: as §1, §2, §3, §4

[4] = NIK siRNA transfected, cell growth curve FIG. 14B

Molecule	proliferation of cholangiocarcinoma cells ([1]; NIK siRNA introduced, FIG. 19)	increase in proliferation rate of the HepG2 cell by knockdown of TRAF3 and PTEN [2, 4]	proliferation of cholangiocarcinoma cells ([3]; NIK siRNA introduced, FIG. 18)	proliferation of cholangiocarcinoma cells ([1]; 9 μM or 15 μM added at beginning of culture, FIG. 21B)	increase in proliferation rate of the HepG2 cell by knockdown of TRAF3 and PTEN ([2]; NIKSMI 9 μM, cell growth curve FIG. 14A)	proliferation of cholangiocarcinoma cells ([3]; 9 μM or 15 μM added at beginning of culture, FIG. 21A)
NIK KD #1: siRNA of NIK, SEQ ID NO: 2 (sense) and 3 (antisense), from Thermo Fisher Scientific (sense CAAACGCAAAGAGCAAGAAUU; antisense UUCUUGCUCUUUGCGUUUGCA; listed as RNA, chemistry not given here)	significantly suppressed	blocked	significantly suppressed			
NIK KD #2: siRNA of NIK, SEQ ID NO: 4 (sense) and 5 (antisense), from Thermo Fisher Scientific (sense GCAAAGAGCAAGAACCAAAUU; antisense UUUGGUUCUUGCUCUUUGCGU; listed as RNA, chemistry not given here)	significantly suppressed	blocked	significantly suppressed			
COc1cc(C(N)=O)nc(-c2cccc(C#C[C@]3(O)CCN(C)C3=O)c2)c1 [NIKSMI, (R)-6-(3-((3-hydroxy-1-methyl-2-oxopyrrolidin-3-yl)ethynyl)phenyl)-4-methoxypicolinamide]				significantly suppressed	blocked	significantly suppressed
